# Reference: ChEMBL document CHEMBL4311992, “Discovery of 3-(((9H-purin-6-yl)amino)methyl)-4,6-dimethylpyridin-2(1H)-one derivatives as novel tubulin polymerization inhibitors for treatment of cancer” (Eur J Med Chem, 2019)
# Activity calls are given as the source filed them. No cut-off for these calls is given here.
# Experiments:
# [1] = test system: Angiopoietin-1 receptor (Homo sapiens), Q02763 [Q939H,Q940H,Y897S]; experiment: Inhibition of human Tie2 Q939H/Q940H/Y897S mutant (771 to end residues) using EFPIYDFLPAKKK as substrate measured after 40 mins in presence of [gamma33P]ATP by scintillation counting method; set-up: scale not given: the % may be the effect or the level left
# [2] = test system: RAC-beta serine/threonine-protein kinase (Homo sapiens), P31751 [S474D]; experiment: Inhibition of recombinant full-length human PKBbeta S474D mutant (120 to end residues) assessed as residual activity at 10 uM using GRPRTSSFAEGKK as substrate measured after 40 mins in presence of [gamma33P]ATP by scintillation counting method
# [3] = test system: Ribosomal protein S6 kinase beta-1 (Homo sapiens), P23443 [T412E]; experiment: Inhibition of recombinant human p70S6K T412E mutant (1 to 421 residues) assessed as residual activity at 10 uM using KKRNRTLTV as substrate measured after 40 mins in presence of [gamma33P]ATP by scintillation counting method
# [4] = target: NUAK family SNF1-like kinase 2 (Homo sapiens) (UniProt Q9H093); experiment: Inhibition of recombinant full-length human NUAK2 assessed as residual activity at 10 uM using KKKVSRSGLYRSPSMPENLNRPR as substrate measured after 40 mins in presence of [gamma33P]ATP by scintillation counting method
# [5] = target: Serine/threonine-protein kinase NIM1 (Homo sapiens) (UniProt Q8IY84); experiment: Inhibition of recombinant full-length human NIM1 assessed as residual activity at 10 uM using KKKVSRSGLYRSPSMPENLNRPR as substrate measured after 40 mins in presence of [gamma33P]ATP by scintillation counting method
# [6] = target: Muscle, skeletal receptor tyrosine-protein kinase (Homo sapiens) (UniProt O15146); experiment: Inhibition of recombinant human MuSK (530 to end residues) assessed as residual activity at 10 uM using myelin basic protein as substrate measured after 40 mins in presence of [gamma33P]ATP by scintillation counting method
# [7] = target: Dual specificity mitogen-activated protein kinase kinase 1 (Homo sapiens) (UniProt Q02750); experiment: Inhibition of recombinant full-length human MEK1 assessed as residual activity at 10 uM using unactive MAPK2 as substrate measured after 40 mins in presence of [gamma33P]ATP by scintillation counting method
# [8] = target: Mitogen-activated protein kinase kinase kinase kinase 5 (Homo sapiens) (UniProt Q9Y4K4); experiment: Inhibition of recombinant full-length human MAP4K5 assessed as residual activity at 10 uM using myelin basic protein as substrate measured after 40 mins in presence of [gamma33P]ATP by scintillation counting method
# [9] = target: Histone-lysine N-methyltransferase EZH2 (Homo sapiens) (UniProt Q15910); experiment: Inhibition of EZH2 (unknown origin) at 10 uM relative to control
# [10] = species on record: Mus musculus; experiment: Inhibition of recombinant full-length mouse PI3K p110beta/p85beta R123L mutant assessed as residual activity at 10 uM using phosphatidylinositol-4, 5-bisphosphate as substrate measured after 40 mins by HTRF assay
# [11] = target: PI3K p110 delta/p85 alpha (Mus musculus) (UniProt P26450+O35904); experiment: Inhibition of recombinant full-length mouse PI3K p110delta/p85alpha assessed as residual activity at 10 uM using phosphatidylinositol-4, 5-bisphosphate as substrate measured after 40 mins by HTRF assay; assay type: protein-complex assay
# [12] = test system: Tyrosine-protein kinase BTK (Homo sapiens), Q06187 [R28H]; experiment: Inhibition of full-length recombinant human BTK R28H mutant assessed as residual activity at 10 uM using LSNLYHQGKFLQTFCGSPLYRRR as substrate measured after 40 mins in presence of [gamma33P]ATP by scintillation counting method
# [13] = target: Calcium/calmodulin-dependent protein kinase type 1 (Homo sapiens) (UniProt Q14012); experiment: Inhibition of recombinant human CaMK1 (2 to end residues) assessed as residual activity at 10 uM using […] as substrate measured after 40 mins in presence of [gamma33P]ATP by scintillation counting method
# [14] = target: Mast/stem cell growth factor receptor Kit (Homo sapiens) (UniProt P10721); experiment: Inhibition of recombinant human c-Kit (544 to end residues) assessed as residual activity at 10 uM using poly(Glu, Tyr) 4:1 as substrate measured after 40 mins in presence of [gamma33P]ATP by scintillation counting method
# [15] = target: Epidermal growth factor receptor (Homo sapiens) (UniProt P00533); experiment: Inhibition of recombinant human EGFR (696 to end residues) assessed as residual activity at 10 uM using poly(Glu, Tyr) 4:1 as substrate measured after 40 mins in presence of [gamma33P]ATP by scintillation counting method
# [16] = target: Glycogen synthase kinase-3 alpha (Homo sapiens) (UniProt P49840); experiment: Inhibition of recombinant human GSK3alpha (2 to end residues) assessed as residual activity at 10 uM using phospho GS2 peptide as substrate measured after 40 mins in presence of [gamma33P]ATP by scintillation counting method
# [17] = target: Leucine-rich repeat serine/threonine-protein kinase 2 (Homo sapiens) (UniProt Q5S007); experiment: Inhibition of recombinant human LRRK2 (970 to end residues) assessed as residual activity at 10 uM using RLGRDKYKTLRQIRQ as substrate measured after 40 mins in presence of [gamma33P]ATP by scintillation counting method
# [18] = target: Mitogen-activated protein kinase 1 (Mus musculus) (UniProt P63085); experiment: Inhibition of mouse MAPK2 assessed as residual activity at 10 uM
# [19] = target: Serine/threonine-protein kinase mTOR (Homo sapiens) (UniProt P42345); experiment: Inhibition of recombinant full-length human mTOR assessed as residual activity at 10 uM measured after 40 mins in presence of [gamma33P]ATP by scintillation counting method
# [20] = target: Phosphorylase b kinase gamma catalytic chain, skeletal muscle/heart isoform (Homo sapiens) (UniProt Q16816); experiment: Inhibition of recombinant full-length human PhKgamma1 assessed as residual activity at 10 uM using KKLNRTLSFAEPG as substrate measured after 120 mins in presence of [gamma33P]ATP by scintillation counting method
# [21] = test system: SW-620; experiment: Induction of apoptosis in human SW620 cells assessed as early apoptotic cells at 100 nM measured after 48 hrs by Annexin V-FITC/propidium iodide staining-based flow cytometry (reference value: 0.773%); assay type: functional
# [22] = test system: SW-620; experiment: Induction of apoptosis in human SW620 cells assessed as viable cells at 100 nM measured after 48 hrs by Annexin V-FITC/propidium iodide staining-based flow cytometry (reference value: 94.7%); assay type: functional; conditions: SW-620, 48 h, read-out: Activity
# [23] = test system: HCT-116; experiment: Induction of apoptosis in human HCT116 cells assessed as viable cells at 100 nM measured after 48 hrs by Annexin V-FITC/propidium iodide staining-based flow cytometry (reference value: 94.5%); assay type: functional; conditions: HCT-116, 48 h, read-out: Activity
# [24] = target: Tubulin (Sus scrofa) (UniProt P02554+P02550); experiment: Inhibition of porcine brain tubulin polymerization at 0.05 to 30 uM by fluorescence assay
# Angiopoietin-1 receptor (Homo sapiens), Q02763 [Q939H,Q940H,Y897S], sequence (Q02763 whole entry Y897S/Q939H/Q940H): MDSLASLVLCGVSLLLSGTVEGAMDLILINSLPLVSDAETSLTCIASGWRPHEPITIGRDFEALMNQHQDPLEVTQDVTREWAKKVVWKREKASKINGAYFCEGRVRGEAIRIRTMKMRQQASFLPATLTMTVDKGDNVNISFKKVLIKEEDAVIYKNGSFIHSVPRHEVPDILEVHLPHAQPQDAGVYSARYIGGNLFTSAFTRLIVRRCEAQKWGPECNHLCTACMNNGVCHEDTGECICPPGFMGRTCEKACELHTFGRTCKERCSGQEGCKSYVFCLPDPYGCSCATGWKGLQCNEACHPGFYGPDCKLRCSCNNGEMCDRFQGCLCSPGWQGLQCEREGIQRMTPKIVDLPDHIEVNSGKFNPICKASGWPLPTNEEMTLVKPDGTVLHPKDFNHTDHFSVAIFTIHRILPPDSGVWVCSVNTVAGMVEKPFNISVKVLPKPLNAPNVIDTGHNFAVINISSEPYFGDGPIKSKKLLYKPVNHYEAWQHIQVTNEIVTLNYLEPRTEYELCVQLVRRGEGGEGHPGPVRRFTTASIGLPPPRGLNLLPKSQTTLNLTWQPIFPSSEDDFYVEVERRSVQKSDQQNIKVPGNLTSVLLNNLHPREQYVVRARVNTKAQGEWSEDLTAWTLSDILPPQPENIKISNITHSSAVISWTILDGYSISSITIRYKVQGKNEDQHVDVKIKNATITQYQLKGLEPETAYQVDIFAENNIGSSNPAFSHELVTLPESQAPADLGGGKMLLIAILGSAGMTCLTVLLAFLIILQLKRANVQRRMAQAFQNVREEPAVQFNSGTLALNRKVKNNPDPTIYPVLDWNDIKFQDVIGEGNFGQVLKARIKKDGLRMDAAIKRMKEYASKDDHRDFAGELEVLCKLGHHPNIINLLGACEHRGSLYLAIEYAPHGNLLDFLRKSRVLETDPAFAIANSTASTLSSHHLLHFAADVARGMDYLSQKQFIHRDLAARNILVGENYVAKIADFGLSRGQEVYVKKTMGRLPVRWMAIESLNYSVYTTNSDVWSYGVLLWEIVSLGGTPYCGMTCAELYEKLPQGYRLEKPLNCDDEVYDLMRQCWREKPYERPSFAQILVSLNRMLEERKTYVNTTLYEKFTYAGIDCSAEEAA
# Leucine-rich repeat serine/threonine-protein kinase 2 (Homo sapiens), sequence (Q5S007 whole entry): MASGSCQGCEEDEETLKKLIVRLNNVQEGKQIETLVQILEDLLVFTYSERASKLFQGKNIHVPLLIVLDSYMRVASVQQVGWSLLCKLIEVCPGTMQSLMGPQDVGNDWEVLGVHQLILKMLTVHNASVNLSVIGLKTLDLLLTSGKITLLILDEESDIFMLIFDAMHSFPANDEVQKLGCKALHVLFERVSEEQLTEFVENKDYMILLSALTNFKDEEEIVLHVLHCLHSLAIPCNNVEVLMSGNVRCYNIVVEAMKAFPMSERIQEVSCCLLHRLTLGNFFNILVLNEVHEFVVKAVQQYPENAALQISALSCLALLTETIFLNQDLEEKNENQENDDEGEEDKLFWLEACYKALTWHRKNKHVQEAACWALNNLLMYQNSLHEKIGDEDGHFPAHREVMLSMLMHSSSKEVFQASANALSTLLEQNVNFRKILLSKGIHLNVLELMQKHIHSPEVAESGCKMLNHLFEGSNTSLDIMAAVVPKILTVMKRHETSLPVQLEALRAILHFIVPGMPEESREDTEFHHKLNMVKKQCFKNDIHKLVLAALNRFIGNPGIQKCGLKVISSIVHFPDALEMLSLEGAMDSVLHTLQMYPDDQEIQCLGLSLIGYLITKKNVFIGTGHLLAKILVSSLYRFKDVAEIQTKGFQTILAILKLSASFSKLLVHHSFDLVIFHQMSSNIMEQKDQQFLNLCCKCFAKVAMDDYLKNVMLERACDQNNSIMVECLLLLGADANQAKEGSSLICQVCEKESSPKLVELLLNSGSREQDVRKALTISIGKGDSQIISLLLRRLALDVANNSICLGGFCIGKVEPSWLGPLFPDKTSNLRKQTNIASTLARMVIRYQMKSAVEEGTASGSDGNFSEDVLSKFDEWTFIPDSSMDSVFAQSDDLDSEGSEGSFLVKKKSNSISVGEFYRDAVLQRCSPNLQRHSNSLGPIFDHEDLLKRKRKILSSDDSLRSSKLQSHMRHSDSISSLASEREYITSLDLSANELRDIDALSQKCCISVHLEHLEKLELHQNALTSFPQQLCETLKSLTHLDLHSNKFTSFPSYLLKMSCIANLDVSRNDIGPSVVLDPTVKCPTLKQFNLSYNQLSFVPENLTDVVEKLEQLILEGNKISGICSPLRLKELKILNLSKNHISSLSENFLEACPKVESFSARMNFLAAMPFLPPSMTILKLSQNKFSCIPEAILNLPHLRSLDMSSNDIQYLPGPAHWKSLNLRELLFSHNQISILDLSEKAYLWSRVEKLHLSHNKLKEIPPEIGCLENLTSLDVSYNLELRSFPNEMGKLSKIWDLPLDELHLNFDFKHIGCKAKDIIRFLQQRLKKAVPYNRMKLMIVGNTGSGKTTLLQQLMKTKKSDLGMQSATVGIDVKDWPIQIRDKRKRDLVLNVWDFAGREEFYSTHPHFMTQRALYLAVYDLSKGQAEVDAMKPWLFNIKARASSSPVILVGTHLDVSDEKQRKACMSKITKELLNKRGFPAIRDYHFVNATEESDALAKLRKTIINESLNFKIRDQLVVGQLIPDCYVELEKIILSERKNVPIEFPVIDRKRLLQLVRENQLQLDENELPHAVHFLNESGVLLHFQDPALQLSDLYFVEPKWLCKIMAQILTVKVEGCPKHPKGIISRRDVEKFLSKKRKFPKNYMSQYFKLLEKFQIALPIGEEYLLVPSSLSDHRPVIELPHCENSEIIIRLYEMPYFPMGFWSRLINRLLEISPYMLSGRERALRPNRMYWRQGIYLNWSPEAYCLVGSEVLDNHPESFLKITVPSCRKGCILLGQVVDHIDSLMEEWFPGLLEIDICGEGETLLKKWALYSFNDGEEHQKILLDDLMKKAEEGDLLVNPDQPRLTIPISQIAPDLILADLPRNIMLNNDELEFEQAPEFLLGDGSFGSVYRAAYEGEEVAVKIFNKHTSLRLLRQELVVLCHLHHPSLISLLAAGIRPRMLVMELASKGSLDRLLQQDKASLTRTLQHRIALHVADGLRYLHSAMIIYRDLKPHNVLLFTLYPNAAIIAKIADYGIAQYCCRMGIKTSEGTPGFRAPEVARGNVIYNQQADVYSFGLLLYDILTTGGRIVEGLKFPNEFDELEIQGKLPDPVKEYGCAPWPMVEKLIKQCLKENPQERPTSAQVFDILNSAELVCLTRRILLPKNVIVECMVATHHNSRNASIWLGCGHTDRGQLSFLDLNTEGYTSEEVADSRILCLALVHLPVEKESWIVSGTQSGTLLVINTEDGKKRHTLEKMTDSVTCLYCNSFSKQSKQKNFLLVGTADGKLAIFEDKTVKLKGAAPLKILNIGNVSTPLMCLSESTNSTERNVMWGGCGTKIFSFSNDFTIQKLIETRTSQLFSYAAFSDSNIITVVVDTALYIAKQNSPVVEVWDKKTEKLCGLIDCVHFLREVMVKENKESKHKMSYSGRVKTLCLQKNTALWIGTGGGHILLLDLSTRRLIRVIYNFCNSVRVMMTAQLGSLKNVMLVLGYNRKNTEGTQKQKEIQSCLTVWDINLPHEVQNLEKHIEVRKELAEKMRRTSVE
# Mast/stem cell growth factor receptor Kit (Homo sapiens), sequence (P10721 whole entry): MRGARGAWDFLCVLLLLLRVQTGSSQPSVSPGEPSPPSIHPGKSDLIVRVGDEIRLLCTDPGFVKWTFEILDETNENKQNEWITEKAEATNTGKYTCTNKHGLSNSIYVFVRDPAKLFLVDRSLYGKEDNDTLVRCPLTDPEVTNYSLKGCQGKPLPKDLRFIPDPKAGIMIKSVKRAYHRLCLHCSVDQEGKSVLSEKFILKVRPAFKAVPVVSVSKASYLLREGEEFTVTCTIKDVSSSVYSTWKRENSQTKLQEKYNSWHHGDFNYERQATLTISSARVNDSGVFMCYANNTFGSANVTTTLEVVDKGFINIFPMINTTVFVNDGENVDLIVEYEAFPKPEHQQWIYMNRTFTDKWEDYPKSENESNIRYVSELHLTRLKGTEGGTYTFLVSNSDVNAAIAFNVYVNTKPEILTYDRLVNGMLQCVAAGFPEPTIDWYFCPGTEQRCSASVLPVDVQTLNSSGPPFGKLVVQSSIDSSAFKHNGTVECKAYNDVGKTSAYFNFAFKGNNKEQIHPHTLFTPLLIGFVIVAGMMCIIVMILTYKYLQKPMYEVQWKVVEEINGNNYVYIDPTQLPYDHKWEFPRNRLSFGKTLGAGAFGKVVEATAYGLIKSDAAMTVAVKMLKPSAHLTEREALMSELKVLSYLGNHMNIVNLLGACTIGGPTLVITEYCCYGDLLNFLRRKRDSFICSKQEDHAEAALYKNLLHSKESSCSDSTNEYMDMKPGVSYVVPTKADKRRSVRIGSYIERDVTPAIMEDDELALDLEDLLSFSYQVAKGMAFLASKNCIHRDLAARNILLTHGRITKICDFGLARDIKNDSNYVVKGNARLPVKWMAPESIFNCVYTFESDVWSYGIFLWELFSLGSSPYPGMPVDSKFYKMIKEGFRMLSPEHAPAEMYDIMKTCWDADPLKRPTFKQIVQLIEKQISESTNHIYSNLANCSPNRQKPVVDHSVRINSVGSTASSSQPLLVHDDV
# Serine/threonine-protein kinase NIM1 (Homo sapiens), sequence (Q8IY84 whole entry): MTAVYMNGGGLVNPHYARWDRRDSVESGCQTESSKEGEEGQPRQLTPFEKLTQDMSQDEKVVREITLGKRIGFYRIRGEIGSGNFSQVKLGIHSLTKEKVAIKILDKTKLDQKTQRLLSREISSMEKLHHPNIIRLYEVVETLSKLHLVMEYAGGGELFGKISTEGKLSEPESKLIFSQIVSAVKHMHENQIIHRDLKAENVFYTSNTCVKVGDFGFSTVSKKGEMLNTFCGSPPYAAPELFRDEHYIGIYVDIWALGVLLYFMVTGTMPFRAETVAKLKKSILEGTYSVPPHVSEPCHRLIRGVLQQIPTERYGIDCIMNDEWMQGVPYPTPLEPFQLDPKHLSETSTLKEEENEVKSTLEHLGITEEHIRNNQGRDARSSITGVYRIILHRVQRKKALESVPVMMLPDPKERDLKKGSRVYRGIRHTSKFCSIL
structure (smiles),measurement,setting,value
Cc1cc(C)c(CNc2nc(Cl)nc3c2ncn3C2CCCC2)c(=O)[nH]1,Activity,[1],114%
same,Activity,[2],114%
same,Activity,[3],105%
same,Activity,[4],114%
same,Activity,[5],106%
same,Activity,[6],114%
same,Activity,[7],100%
same,Activity,[8],130%
same,inhibition,[9],-9%
same,Activity,[10],101%
same,Activity,[11],100%
same,Activity,[12],98%
same,Activity,[13],109%
same,Activity,[14],99.5%
same,Activity,[15],114%
same,Activity,[16],102%
same,Activity,[17],100%
same,Activity,[18],97.5%
same,Activity,[19],78.5%
same,Activity,[20],104%
same,Activity,[21],3.55%
same,viability at 0.1 µM,[22],66%
same,viability at 0.1 µM,[23],39%
same,inhibition,[24],Active
